“Also recorded” adds a separate entry of the source.
Experiments:
GABA-A α1 subtype = target: T1, GABA-A α1 subtype (Homo sapiens, UniProt P14867+P18507); details: cited from earlier work
T1 sequence (P14867 28-456): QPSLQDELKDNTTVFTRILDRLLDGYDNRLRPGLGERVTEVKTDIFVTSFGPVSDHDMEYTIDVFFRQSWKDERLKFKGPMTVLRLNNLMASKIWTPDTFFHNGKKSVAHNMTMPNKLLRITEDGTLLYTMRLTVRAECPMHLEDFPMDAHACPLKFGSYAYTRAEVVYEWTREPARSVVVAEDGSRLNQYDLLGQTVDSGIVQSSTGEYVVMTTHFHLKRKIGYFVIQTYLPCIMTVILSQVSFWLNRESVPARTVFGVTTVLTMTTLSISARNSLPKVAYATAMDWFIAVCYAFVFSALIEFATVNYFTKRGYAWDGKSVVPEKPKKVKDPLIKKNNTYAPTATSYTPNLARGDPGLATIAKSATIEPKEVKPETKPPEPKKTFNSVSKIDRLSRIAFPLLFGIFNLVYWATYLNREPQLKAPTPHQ
T1 sequence (P18507 40-467 limits assumed): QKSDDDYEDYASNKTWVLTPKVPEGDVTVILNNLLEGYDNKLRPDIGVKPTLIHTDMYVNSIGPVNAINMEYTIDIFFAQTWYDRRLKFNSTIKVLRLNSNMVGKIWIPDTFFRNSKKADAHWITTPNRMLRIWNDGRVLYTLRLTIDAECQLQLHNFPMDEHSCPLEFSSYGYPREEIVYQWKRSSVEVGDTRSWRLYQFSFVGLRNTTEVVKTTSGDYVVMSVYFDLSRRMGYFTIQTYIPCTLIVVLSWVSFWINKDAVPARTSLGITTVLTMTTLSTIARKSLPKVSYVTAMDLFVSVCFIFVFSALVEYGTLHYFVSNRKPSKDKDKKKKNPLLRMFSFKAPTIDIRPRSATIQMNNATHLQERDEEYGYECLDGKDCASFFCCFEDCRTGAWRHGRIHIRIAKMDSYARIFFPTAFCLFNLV
T1 sequence (P28472 26-473 partner): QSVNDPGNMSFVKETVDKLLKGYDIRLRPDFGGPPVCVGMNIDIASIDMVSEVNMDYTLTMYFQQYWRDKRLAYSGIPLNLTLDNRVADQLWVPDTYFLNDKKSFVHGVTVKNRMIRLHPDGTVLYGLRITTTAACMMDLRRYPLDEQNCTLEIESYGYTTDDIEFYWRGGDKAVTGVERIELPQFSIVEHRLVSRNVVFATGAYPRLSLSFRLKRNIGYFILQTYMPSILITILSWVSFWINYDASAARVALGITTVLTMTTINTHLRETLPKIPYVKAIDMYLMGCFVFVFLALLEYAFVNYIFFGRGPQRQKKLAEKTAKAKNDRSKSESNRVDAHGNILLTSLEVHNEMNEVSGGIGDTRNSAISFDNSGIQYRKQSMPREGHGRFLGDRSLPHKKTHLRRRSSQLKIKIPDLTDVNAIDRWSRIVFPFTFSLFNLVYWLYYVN

[1] = cited from earlier work
BTBR mice = assay: Elevated plus maze test; assay type: in vivo; details: 0.05 mg/kg
Experimental: (§1) The test was performed as previously described (Han et al., 2012). The maze used in this study has two closed arms (5.1×30 cm) surrounded by 20-cm high non-transparent walls and two open arms (5.1×30 cm). During the 10 min of trial, times spent in closed, center, and open arms, and total distance traveled during the trial were measured by the video-tracking software (EthoVision XT 8.5, Noldus Technology).

C57BL/6J mice = assay: Elevated plus maze test; assay type: in vivo; details: low doses of clonazepam
Experimental: as §1

[2] = cited from earlier work; remark: listed apart in the source
Scn1a+/− mice = assay: Open field and elevated plus maze tests (sedation, anxiolysis); assay type: in vivo
Experimental: Open field test was performed as previously described^23. Briefly, each individual mouse was placed near the wall-side of 38×42 cm open-field arena, and the movement of the mouse was recorded by USB webcam (LIFECAM™ HD-6000, MICROSOFT™) and PC-based video capture software (WINAVI VIDEO CAPTURE™, ZJMEDIA DIGITAL TECHNOLOGY™) for 10 min. The recorded video file was further analyzed by off-line video tracking software (ETHOVISION™ XT 7.0, NOLDUS TECHNOLOGY™). Total distance traveled and time in center (15×15 cm imaginary square) were measured. The open field arena was cleaned with 70% ethanol and wiped with paper towels between each trial.
The elevated plus maze is a plus-shaped maze that is elevated 60 cm above the floor. It consists of two closed arms surrounded by 15-cm high transparent walls and two open arms (5×25 cm) with a small ledge along the side of two open arms to prevent falling from the maze during the test. Each mouse was placed in the center (5×5 cm) of the maze facing one of the closed arms. During the 10-min test period, the movement of the mouse was recorded by a USB webcam (LIFECAM™ HD-6000, MICROSOFT™) and PC-based video capture software (WINAVI VIDEO CAPTURE™, ZJ MEDIA DIGITAL TECHNOLOGY™). The recorded video file was further analyzed by off-line video tracking software (ETHOVISION™ XT 7.0). Times spent in closed arms, center, and open arms were measured. The maze was cleaned with 70% ethanol and wiped with paper towels between each trial.
Oral administration is specifically contemplated for the methods described herein, and is well known for both benzodiazepines and non-BDZ GABA-A enhancers as described herein.

| Compound | action at the α1 subtype (GABA-A α1 subtype) | substitution for chlordiazepoxide in animals ([1]; drug discrimination) | substitution for zolpidem in animals ([1]; drug discrimination) | sedative effects in animal studies ([1]; even at high doses) | time in open arms (indicator of abnormally low anxiety) (BTBR mice) | sedation (total distance moved during elevated plus maze) (BTBR mice; BTBR and C57BL/6J mice (FIG. 43I)) | anxiety-like behavior: avoidance of the open arms (C57BL/6J mice) | Dose in humans for anti-anxiety, anti-convulsive, or sedative effects: equivalent dose to 10 mg diazepam ([2]; Table 1, values marked *) | dose of equivalent efficacy to 10 mg of diazepam [2] | anxiolytic effect in elevated plus maze (Scn1a+/− mice; 0.0625 mg/kg) | anxiolytic effect in open field test (Scn1a+/− mice; 0.0625 mg/kg) | locomotor activity in open field test (Scn1a+/− mice; 0.0625 mg/kg) | sedation (Scn1a+/− mice; both wild-type and Scn1a+/− mice, dose series) | maximal intraperitoneal dose that did not cause significant sedation or anxiolytic effect (Scn1a+/− mice; open field and elevated plus maze, Scn1a+/− mice) |
| --- | --- | --- | --- | --- | --- | --- | --- | --- | --- | --- | --- | --- | --- | --- |
| Cn1ncnc1COc1nn2c(-c3cc(F)ccc3F)nnc2cc1C(C)(C)C [L-838,417] | antagonist | substitutes for the anxiolytic benzodiazepine chlordiazepoxide | not for the hypnotic imidazopyridine drug zolpidem | no sedative effects |  |  |  |  |  |  |  |  |  |  |
| O=C1CN=C(c2ccccc2Cl)c2cc([N+](=O)[O-])ccc2N1 [Clonazepam] |  |  |  |  | changed toward the values for C57BL/6J mice | did not cause sedation; also recorded: without sedation | little effect | 0.5 mg | 0.5 mg | did not elicit anxiolytic effects | not observed | not changed | dose-dependent sedation | 0.0625 mg/kg |
